Measured values taken from patent US20250275968A1, “INHIBITORS OF TAU PROTEINS” (DEUTSCHES ZENTRUM FÜR NEURODEGENERATIVE ERKRANKUNGEN E.V., priority 2022, published 2025).
Structures can show the parent of a compound that is named as a salt. Each block holds one compound with its values, some of them ahead of it.

Assays:
[1] = molecular target: T1, 2N4R tau (Homo sapiens, UniProt P10636); assay: In vitro seeded aggregation/fibrillization assay of 2N4R tau (ThT fluorescence); assay type: biochemical
T1 construct: Full-length 2N4R tau was incubated with Osimertinib mesylate
Experimental: Aggregation of 2N4R Tau was performed using a previously published co-factor-free aggregation protocol, with a few modifications (Reference: Chakraborty, P. et al. Co-factor-free aggregation of tau into seeding-competent RNA-sequestering amyloid fibrils. Nat. Commun. 12, 4231 (2021)). Aggregation experiments used the Tau protein stock prepared in 25 mM HEPES pH 7.4, 1 mM TCEP. Stocks of compounds were prepared in aggregation buffer (25 mM HEPES, 10 mM KCl, 5 mM MgCl2, pH 7.2) or in DMSO (10 mM compound).
(§1) To prepare the Tau fibril seeds by de novo aggregation, 2N4R Tau at a monomer concentration of 25 μM was diluted in aggregation buffer. The working concentration of TCEP in the aggregation mixture was <25 μM after dilution of the stock. To this mixture, Thioflavin T (ThT) was added to a final concentration of 50 μM. A total volume of 100 μL of the Tau-ThT mixture was incubated in a well of a 96-well microplate (Greiner Bio-one), in the presence of two polytetrafluoroethylene beads. The microplate was subjected to a program implemented in a Tecan Spark plate reader that involved incubating at 37° C., with intervals of double orbital shaking and ThT fluorescence emission measurement. The excitation wavelength for ThT was set as 430 nm and the emission wavelength was 485 nm. Details of this plate reader program were published previously (Reference: Chakraborty, P. et al. Co-factor-free aggregation of tau into seeding-competent RNA-sequestering amyloid fibrils. Nat. Commun. 12, 4231 (2021)). […] The fibril-containing mixture collected from the microplate served as a seeding mixture for the subsequent aggregation assays.
Seeded aggregation assays were performed as described above but with 1.0% of the well volume occupied by the seeding mixture sonicated for 1 minute. The assays were performed in the presence and absence of compounds, and working concentrations ranged from 0-250 μM compound.
Analyses of the fluorescence curves were performed using Graphpad PRISM version 8. Fluorescence data were fit to a sigmoid function. The number of hours corresponding to half-maximal ThT Fluorescence™ as well as the span of fluorescence intensity (Span) were determined for each sigmoid curve. Statistically significant differences were determined by one-way ANOVA analysis with Dunnett's multiple comparison test or unpaired t-test.

[2] = tested on: HEK293T biosensor cells expressing the human tau repeat domain (RD) harboring the P301L/V337M mutation (TauRD^LM-GFP); assay: HEK biosensor cell tau seeding assay; assay type: cell-based; conditions: for compound concentration up to which total amount of cells remained close to 100% (low toxicity): HEK biosensor cells, relative to vehicle (DMSO)
Experimental: Compound stock solutions were prepared as 10 mM compound in DMSO.
HEK293T biosensor cells expressing the human tau repeat domain (RD) harboring the P301L/V337M mutation and fused to a C-terminal GFP tag (named TauRD^LM-GFP) were engineered to probe Tau seeding in cellula (Reference: Liu, S., Hossinger, A., Heumüller, S E. et al. Highly efficient intercellular spreading of protein misfolding mediated by viral ligand-receptor interactions. Nat Commun 12, 5739 (2021). https://doi.org/10.1038/s41467-021-25855-2). HEK cells expressing the P301L human full-length Tau, C-terminally tagged with GFP were incubated with pre-sonicated hTau40^P301L fibrils to induce Tau aggregate formation. Cells were harvested and the resulting cell lysate was used to seed Tau aggregation in further experiments with HEK TauRD^LM-GFP cells.
In a typical seeded assay, HEK cells were incubated with cell lysate, compounds (0-40 μM) and lipofectamine for 22-48 hours. Negative control experiments in the absence of compounds (only with vehicle DMSO) and in the presence of cell lysate were performed in parallel.
Dose response curves were constructed by quantifying the number of cells with aggregates for each compound concentration. The curves were fitted with a sigmoid function using Graphpad PRISM version 8. The inhibitory concentration at 50% activity (IC50) was determined for each compound.

[3] = molecular target: T2, tau(244-372, 13818 Da) (Homo sapiens, UniProt P10636); assay: ESI-MS covalent modification of tau; assay type: binding
T2 construct: comprising residues 244-372 of 2N4R Tau
Experimental: This analysis was performed using the 4R Tau construct (K18 construct, 13818 Da) comprising residues 244-372 of 2N4R Tau. Compounds (330 μM) were incubated with 4R Tau (65 μM) for 16 h at 37° C. in 10 mM ammonium bicarbonate at pH 7.0. The compound/4R Tau mixtures were injected into an LC system (ACQUITY) coupled to a single quadrupole mass detection system (SQ Detector 2, Waters) with diode-array detectors (DAD). The DAD spectrum covers wavelengths of 210-400 nm. Components of the compound-4R Tau mixture were separated using a BioResolve RP mAb column (Waters) with a gradient of 5-95% buffer B (buffer A is 0.1% TFA in water and buffer B is 0.1% TFA in acetonitrile). Covalent modification of 4R Tau corresponded to mass additions of 500 Da (Osimertinib) and 486 Da (AZ7550 or AZ5104).

[4] = molecular target: T3, 2N4R Tau fibrils (Homo sapiens, UniProt P10636); assay: Saturation transfer difference (STD) NMR with tau fibrils; assay type: binding; conditions: 48-fold excess of compound, 100 mM NaCl, 2.5% (v/v) DMSO, pH 6.8, 37° C.
T3 construct: Full-length 2N4R tau was incubated with Osimertinib mesylate
Experimental: 2N4R Tau fibrils were prepared using the aggregation procedure described in the section in vitro assay 1 without Thioflavin T. The mole ratio of “free” compound to fibrils was 48:1 (corresponding to a total compound concentration of 250 μM and a total fibril concentration of 5 μM Tau). The NMR samples were prepared in 50 mM sodium phosphate with 100 mM NaCl and 2.5% (v/v) DMSO at pH 6.8. The spectra were recorded at 37° C. using a Bruker 700 MHz spectrometer equipped with a triple resonance cryoprobe. 1D ^1H-NMR STD spectra were acquired in an interleaved manner, alternating between off-resonance irradiation at 60 ppm and on-resonance irradiation at −2 ppm.

[5] = molecular target: T4, 15N-labeled 2N4R tau (Homo sapiens, UniProt P10636); assay: SOFAST-HMQC NMR binding to monomeric tau; conditions: 18 μM tau, 50 mM sodium phosphate pH 6.8, 16 h at 37° C., spectra at 5° C.
T4 construct: Full-length 2N4R tau was incubated with Osimertinib mesylate
From the text: (A) Overlaid spectra of 2N4R tau with (black) and without (grey) a 100-fold molar excess of Osimertinib mesylate.
To obtain residue-specific information about the interaction between Tau and the compounds, ^1H-^15N correlation spectra of 2N4R Tau were monitored over the course of a titration with increasing amounts of compound. The ^1H-^15N SOFAST-HMQC (Reference: Schanda, P., Kupce, E. & Brutscher, B. SOFAST-HMQC experiments for recording two-dimensional heteronuclear correlation spectra of proteins within a few seconds. J. Biomol. NMR 33, 199-211 (2005)) spectra of [U-^15N]-Tau were acquired at 5° C. on a Bruker 800 MHz spectrometer equipped with a triple-resonance cryoprobe. Tau samples (18-25 μM) were prepared in NMR buffer containing 10% (v/v) D2O, and with compound concentrations that corresponded to Tau:compound mole ratios of 1:10 and 1:100. All NMR samples were incubated overnight (˜16 h) at 37° C. prior to spectral acquisition. Tau amide assignments were taken from a previous study (Reference: Mukrasch, M. et al. Structural polymorphism of 441-residue tau at single residue resolution. PLoS Biol. 7, e34 (2009)). However, because previous assignments were obtained using a Tau sample prepared in the presence of reducing agents, some amide resonances belonging to the repeat region of Tau (close to C291 and C322) were not unambiguously transferred to the SOFAST-HMQC spectra acquired under oxidizing conditions. Therefore, to obtain nearly complete backbone assignments in the repeat region, 3D HNCA, 3D HNCOCA, and 3D CBCACONH spectra were recorded for a [U-^13C,^15N]-4R Tau (K18 construct) sample prepared under the same buffer condition. The weighted, normalized chemical shift perturbations (CSP) were calculated as CSP=√[0.5 [(Δδ H)^2+(Δδ N)^2/25]. NMR signal intensity ratios, I/I0 (where I is the peak intensity of Tau amide backbone resonances in the presence of the compounds, and I0 is the peak intensity in the absence of the compounds), were calculated for each titration point.

[6] = molecular target: T5, 2N4R tau aggregates (Homo sapiens, UniProt P10636); assay: Dissolution of preformed 2N4R tau fibrils (ThT fluorescence, TEM); assay type: biochemical; conditions: compounds added to tau fibrils after about 40 h; tau monomer:Compound 1:3 and 1:10
T5 construct: Full-length 2N4R tau was incubated with Osimertinib mesylate
Experimental: (A) ThT fluorescence curves monitoring tau aggregation. tau fibrillization reached a saturation point within about 40 h, then compounds or buffer (Reference) were added to tau fibrils (tau monomer:Compound mole ratios 1:3 and 1:10). The experiment was performed in duplicate. […] Statistically significant differences were determined by one-way ANOVA with Dunnett's multiple comparison test. Significant differences corresponding to p≤0.0002(***) and p≤0.0001(****) are indicated. […] Scale bars are 500 nm. […] The dotted line corresponds to one standard deviation above the Reference value.
as §1
Fibril samples were negative stained using glow discharged 400 mesh carbon-coated copper grids. After staining using a 1% uranyl acetate solution, images were acquired on a Talos L120C transmission electron microscope (Thermo Fisher, Eindhoven, The Netherlands).

[7] = tested on: tau-induced degeneration of Drosophila eyes (GMR-Gal4/WT tau); assay: Drosophila neurodegeneration model (eye degeneration); assay type: in vivo; conditions: GMR-Gal4/WT tau flies treated in food from larvae stage to adult stage
Experimental: Stock solutions of individual compounds were prepared by dissolving 10 mg of the compound in 100 μl of 100% DMSO. Osimertinib, Osimertinib mesylate and AZ7550 mesylate were orally fed to the flies by mixing them with food. The final concentration of each compound, which was used for treating the Drosophila, was derived on the basis of recommended concentrations for human use (reference concentration) based on body weight.
We have used three concentrations for each compound. One was equal to the reference concentration, and two were higher than the reference concentration. Final concentrations of different compounds mixed with fly food are: Osimertinib mesylate, […]; Osimertinib, […]; AZ 7550 mesylate, 10 µM and 20 µM. After hatching, first instar larvae were transferred onto the food containing one of the compounds. Food mixed with drug at required concentration was replaced with fresh food every 48 h.
Light microscopy was performed after mounting the fly heads on the glass slide using a double-sided adhesive tape. Full-eye images were captured with the help of an Infinity Analyze camera attached to an Olympus SZX7 microscope with a halogen light source. Total eye surface area and degenerated eye surface area were marked and calculated with Infinity Analyze software (Lumenera corporation). Percentage of degenerated area was calculated and plotted using GraphPad Prism 8.
After the eclosion, treated and control flies (2-3 days old) were fixed in 1% formaldehyde for two hours, followed by serial dehydration steps of 12 hrs each in 25%, 50%, 75% and 100% ethanol were carried out. Flies were stored in 100% ethanol and dried with CPD before mounting on the stab for imaging. Eye Images were captured at 150× and analyzed using Infinity Analyze software.

T1 sequence (P10636 1-441 isoform P10636-8): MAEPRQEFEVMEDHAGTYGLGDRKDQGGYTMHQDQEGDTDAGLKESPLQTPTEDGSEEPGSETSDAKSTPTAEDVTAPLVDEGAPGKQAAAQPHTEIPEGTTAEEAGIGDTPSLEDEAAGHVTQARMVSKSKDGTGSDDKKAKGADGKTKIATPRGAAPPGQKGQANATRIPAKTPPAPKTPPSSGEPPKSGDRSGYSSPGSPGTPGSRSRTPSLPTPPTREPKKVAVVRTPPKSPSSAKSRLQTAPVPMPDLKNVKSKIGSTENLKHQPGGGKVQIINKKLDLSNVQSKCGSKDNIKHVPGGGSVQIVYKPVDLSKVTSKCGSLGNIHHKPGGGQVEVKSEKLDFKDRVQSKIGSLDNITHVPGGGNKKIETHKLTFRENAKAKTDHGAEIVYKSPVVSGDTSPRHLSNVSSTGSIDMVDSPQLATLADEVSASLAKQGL
T2 sequence (P10636 561-689): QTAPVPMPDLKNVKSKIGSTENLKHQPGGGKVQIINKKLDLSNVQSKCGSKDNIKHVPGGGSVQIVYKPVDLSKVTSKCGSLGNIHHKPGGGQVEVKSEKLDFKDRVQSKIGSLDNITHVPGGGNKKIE
T3 sequence (P10636 1-441 isoform P10636-8): as the sequence (P10636 1-441 isoform P10636-8) above
T4 sequence (P10636 1-441 isoform P10636-8): as above
T5 sequence (P10636 1-441 isoform P10636-8): as above

- efficacy of aggregation delay compared to Compound 1 ([1]; 1:3 Tau:compound mole ratio, 2.5% (v/v) DMSO): notably more efficacious
- normalized Tm, extent of aggregation delay ([1]; 1:3 Tau:compound mole ratio, 2.5% (v/v) DMSO, at least 3 replicates): significant delay of aggregation
SMILES: C=CC(=O)Nc1cc(COc2cc(-c3cn(C)c4ccccc34)ccn2)ccc1N1CCCC1 [Compound 31]

- In vitro seeded aggregation/fibrillization of full-length tau (ThT fluorescence curves) ([1]; 2N4R tau, various formulations): inhibited in a dose-dependent manner
SMILES: C=CC(=O)Nc1cc(Nc2nccc(-c3cn(C)c4ccccc34)n2)c(OC)cc1N(C)CCNC [Compound 2]
- covalent modification of cysteines in tau (ESI-MS) [3]: confirms covalent modification of cysteines

The remaining lines, values behind:

SMILES: C=CC(=O)Nc1cc(Nc2cc(-c3cn(C)c4ccccc34)nc(OC)n2)c(OC)cc1N(C)CCN(C)C [Compound 9]
- compound concentration up to which total amount of cells remained close to 100% (low toxicity) [2]: about 4.0 μM

SMILES: O=C(O[C@@H]1Cc2c(O)cc(O)cc2O[C@@H]1c1cc(O)c(O)c(O)c1)c1cc(O)c(O)c(O)c1 [EGCG]
- inhibitory activity toward the aggregation of tau in HEK biosensor cells (number of cells with aggregates relative to DMSO) ([2]; control compounds compared with Osimertinib, compound 2 and compound 3): much lower inhibitory activity

SMILES: C=CC(=O)Nc1cc(Nc2nccc(-c3cn(C)c4ccccc34)n2)c(OC)cc1N(C)CCNC [AZ7550 hydrochloride, N-[4-methoxy-5-[4-(1-methyl-1H-indol-3-yl)-2-pyrimidinyl]amino]-2-[methyl[2-(methylamino)ethyl]amino]phenyl]-2-Propenamide hydrochloride]
- compound concentration up to which total amount of cells remained close to 100% (low toxicity) [2]: about 5.0 μM
- STD effect with tau fibrils (fibril binding epitopes) [4]: Protons showing STD effects
- binding to tau (NMR spectroscopy) [5]: reveals binding
- dissolution of 2N4R tau aggregates (reduction of ThT fluorescence intensity) [6]: partially dissolve

SMILES: C=CC(=O)Nc1cc(Nc2nccc(-c3cn(C)c4ccccc34)n2)c(OC)cc1N(C)CCNC [AZ7550 mesylate, N-[4-methoxy-5-[[4-(1-methyl-1H-indol-3-yl)-2-pyrimidinyl]amino]-2-[methyl[2-(methylamino)ethyl]amino]phenyl]-2-Propenamide]
- tau-induced degeneration of Drosophila eyes (percent degeneration, light microscopy) [7]: rescue tau-induced degeneration of Drosophila eyes
